Measurements from the kinase profiling compilation of Christmann-Franck et al. (2016).

What was measured:
Test in all cases: radiometric filter-binding kinase assay, Kinase HotSpot
Conditions in all cases: compound 0.5 µM; ATP 10 µM
PRKCA (human) = PRKCA (human) (UniProt P17252)
MAPK10 (human) = MAPK10 (human) (UniProt P53779)
CDK4 CCND1 (human) = CDK4 CCND1 (human) (UniProt P24385+P11802)
[1] = system: SGK1 (human), O00141 [S422D]
CAMK1 (human) = CAMK1 (human) (UniProt Q14012)
MARK3 (human) = MARK3 (human) (UniProt P27448)
TEC (human) = TEC (human) (UniProt P42680)
PRKCH (human) = PRKCH (human) (UniProt P24723)
EPHB3 (human) = EPHB3 (human) (UniProt P54753)
IKBKE (human) = IKBKE (human) (UniProt Q14164)
MAP3K7 TAB1 (human) = MAP3K7 TAB1 (human) (UniProt O43318+Q15750)
JAK3 JH1 JH2 (human) = JAK3 JH1 JH2 (human) (UniProt P52333)
MAP3K14 (human) = MAP3K14 (human) (UniProt Q99558)
MAP2K2 (human) = MAP2K2 (human) (UniProt P36507)
TBK1 (human) = TBK1 (human) (UniProt Q9UHD2)
STK16 (human) = STK16 (human) (UniProt O75716)
CDK5 CDK5R1 p25 (human) = CDK5 CDK5R1 p25 (human) (UniProt Q00535+Q15078)
ACVRL1 (human) = ACVRL1 (human) (UniProt P37023)
PLK3 (human) = PLK3 (human) (UniProt Q9H4B4)
TTK (human) = TTK (human) (UniProt P33981)
AURKB (human) = AURKB (human) (UniProt Q96GD4)
MAP4K5 (human) = MAP4K5 (human) (UniProt Q9Y4K4)
MINK1 (human) = MINK1 (human) (UniProt Q8N4C8)
MAP3K3 (human) = MAP3K3 (human) (UniProt Q99759)
EPHB1 (human) = EPHB1 (human) (UniProt P54762)
EPHA5 (human) = EPHA5 (human) (UniProt P54756)
CSNK1G2 (human) = CSNK1G2 (human) (UniProt P78368)
MAP4K4 (human) = MAP4K4 (human) (UniProt O95819)
SRPK3 (human) = SRPK3 (human) (UniProt Q9UPE1)
TYRO3 (human) = TYRO3 (human) (UniProt Q06418)
WNK3 (human) = WNK3 (human) (UniProt Q9BYP7)
SLK (human) = SLK (human) (UniProt Q9H2G2)
ACVR1 (human) = ACVR1 (human) (UniProt Q04771)
PRKX (human) = PRKX (human) (UniProt P51817)
MAP3K2 (human) = MAP3K2 (human) (UniProt Q9Y2U5)
PIM1 (human) = PIM1 (human) (UniProt P11309)
PRKCB2 (human) = PRKCB2 (human) (UniProt P05771)
CLK1 (human) = CLK1 (human) (UniProt P49759)
SRPK1 (human) = SRPK1 (human) (UniProt Q96SB4)
PTK6 (human) = PTK6 (human) (UniProt Q13882)
HIPK2 (human) = HIPK2 (human) (UniProt Q9H2X6)
DYRK4 (human) = DYRK4 (human) (UniProt Q9NR20)

HIPK2 (human), sequence (Q9H2X6 whole entry, looked up): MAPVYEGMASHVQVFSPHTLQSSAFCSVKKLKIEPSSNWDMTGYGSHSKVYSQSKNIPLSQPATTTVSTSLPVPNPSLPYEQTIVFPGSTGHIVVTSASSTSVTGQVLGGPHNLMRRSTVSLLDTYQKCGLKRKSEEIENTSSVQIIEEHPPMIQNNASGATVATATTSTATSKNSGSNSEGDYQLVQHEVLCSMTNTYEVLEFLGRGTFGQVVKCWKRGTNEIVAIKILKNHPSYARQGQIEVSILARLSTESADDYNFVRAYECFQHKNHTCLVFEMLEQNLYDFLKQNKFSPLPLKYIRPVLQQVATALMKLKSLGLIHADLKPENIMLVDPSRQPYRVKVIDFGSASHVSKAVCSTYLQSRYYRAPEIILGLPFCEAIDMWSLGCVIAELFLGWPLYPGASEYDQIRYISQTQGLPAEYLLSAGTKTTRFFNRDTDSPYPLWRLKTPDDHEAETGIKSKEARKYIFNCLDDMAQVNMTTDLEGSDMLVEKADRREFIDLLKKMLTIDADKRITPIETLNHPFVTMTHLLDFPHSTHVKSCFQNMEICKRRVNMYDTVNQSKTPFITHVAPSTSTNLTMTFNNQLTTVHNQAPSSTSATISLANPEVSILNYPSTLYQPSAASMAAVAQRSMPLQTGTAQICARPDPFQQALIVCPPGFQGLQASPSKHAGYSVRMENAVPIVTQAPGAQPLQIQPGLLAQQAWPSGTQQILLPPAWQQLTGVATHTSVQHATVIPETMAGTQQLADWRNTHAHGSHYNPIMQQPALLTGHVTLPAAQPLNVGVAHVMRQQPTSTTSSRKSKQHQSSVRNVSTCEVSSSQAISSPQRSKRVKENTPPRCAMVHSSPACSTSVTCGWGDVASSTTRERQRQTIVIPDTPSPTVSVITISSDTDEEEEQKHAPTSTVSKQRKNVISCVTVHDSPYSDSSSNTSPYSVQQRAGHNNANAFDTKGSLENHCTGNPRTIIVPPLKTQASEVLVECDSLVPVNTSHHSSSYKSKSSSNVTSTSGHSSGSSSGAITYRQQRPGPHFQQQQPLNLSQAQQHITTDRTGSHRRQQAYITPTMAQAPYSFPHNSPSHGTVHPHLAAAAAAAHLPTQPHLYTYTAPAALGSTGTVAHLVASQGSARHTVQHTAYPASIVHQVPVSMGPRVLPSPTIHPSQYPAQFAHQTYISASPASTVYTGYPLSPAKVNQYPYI
PTK6 (human), sequence (Q13882 whole entry, looked up): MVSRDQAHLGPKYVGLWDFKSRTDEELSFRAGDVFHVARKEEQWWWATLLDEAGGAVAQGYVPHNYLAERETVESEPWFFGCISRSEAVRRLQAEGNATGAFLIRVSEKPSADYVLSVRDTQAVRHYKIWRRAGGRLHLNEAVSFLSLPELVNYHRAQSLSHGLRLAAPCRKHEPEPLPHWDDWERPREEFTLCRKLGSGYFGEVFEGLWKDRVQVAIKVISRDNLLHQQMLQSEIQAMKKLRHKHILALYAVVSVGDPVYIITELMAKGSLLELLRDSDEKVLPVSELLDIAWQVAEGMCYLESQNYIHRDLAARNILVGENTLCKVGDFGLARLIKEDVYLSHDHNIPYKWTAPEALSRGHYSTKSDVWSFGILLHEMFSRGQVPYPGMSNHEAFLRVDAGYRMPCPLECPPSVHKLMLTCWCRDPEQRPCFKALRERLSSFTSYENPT
SGK1 (human), O00141 [S422D], sequence (O00141 whole entry S422D, looked up): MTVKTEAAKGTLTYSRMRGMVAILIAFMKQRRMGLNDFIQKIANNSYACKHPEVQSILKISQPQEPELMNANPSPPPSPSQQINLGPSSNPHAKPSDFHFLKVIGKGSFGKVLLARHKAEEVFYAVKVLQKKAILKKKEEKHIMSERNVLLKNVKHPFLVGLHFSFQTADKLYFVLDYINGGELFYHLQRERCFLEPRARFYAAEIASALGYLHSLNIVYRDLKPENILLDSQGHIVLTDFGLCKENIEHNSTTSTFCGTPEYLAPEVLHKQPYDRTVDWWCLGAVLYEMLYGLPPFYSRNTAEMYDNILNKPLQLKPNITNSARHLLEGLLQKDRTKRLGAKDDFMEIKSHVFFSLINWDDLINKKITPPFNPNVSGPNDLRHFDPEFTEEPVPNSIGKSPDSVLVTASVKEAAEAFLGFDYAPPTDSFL
MINK1 (human), sequence (Q8N4C8 whole entry, looked up): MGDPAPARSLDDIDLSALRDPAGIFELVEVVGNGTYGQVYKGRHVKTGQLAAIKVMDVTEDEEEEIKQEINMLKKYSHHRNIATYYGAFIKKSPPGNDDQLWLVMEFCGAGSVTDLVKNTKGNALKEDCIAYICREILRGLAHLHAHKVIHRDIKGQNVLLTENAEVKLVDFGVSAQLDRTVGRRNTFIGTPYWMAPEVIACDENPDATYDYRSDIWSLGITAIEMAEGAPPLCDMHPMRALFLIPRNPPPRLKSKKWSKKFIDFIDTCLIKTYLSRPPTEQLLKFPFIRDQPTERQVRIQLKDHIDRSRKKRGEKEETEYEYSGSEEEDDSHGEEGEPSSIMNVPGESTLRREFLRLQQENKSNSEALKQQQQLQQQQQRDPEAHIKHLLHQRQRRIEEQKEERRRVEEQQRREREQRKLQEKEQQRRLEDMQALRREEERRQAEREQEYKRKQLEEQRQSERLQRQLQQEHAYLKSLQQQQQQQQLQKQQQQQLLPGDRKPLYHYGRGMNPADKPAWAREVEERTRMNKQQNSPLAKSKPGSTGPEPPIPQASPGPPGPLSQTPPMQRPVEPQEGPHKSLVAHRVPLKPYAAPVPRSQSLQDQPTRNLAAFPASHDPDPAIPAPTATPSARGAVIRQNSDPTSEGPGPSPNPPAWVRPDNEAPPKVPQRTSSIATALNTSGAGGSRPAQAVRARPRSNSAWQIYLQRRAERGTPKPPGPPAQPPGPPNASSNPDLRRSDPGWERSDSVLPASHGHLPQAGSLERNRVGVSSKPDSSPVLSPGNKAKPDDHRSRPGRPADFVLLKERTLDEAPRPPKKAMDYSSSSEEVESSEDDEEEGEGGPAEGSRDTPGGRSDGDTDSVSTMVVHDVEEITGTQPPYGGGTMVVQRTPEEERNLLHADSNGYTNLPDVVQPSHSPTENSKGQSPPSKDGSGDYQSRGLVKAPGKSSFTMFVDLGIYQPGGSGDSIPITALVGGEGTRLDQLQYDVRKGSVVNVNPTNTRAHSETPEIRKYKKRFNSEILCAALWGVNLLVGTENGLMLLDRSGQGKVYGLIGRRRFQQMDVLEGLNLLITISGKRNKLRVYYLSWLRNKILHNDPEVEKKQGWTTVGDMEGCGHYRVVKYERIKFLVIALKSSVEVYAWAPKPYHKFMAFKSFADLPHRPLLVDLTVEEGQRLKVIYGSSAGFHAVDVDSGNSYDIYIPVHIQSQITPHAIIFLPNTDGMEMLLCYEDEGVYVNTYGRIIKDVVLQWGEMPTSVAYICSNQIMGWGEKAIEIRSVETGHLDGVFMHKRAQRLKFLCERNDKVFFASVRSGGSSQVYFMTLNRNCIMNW
EPHB3 (human), sequence (P54753 whole entry, looked up): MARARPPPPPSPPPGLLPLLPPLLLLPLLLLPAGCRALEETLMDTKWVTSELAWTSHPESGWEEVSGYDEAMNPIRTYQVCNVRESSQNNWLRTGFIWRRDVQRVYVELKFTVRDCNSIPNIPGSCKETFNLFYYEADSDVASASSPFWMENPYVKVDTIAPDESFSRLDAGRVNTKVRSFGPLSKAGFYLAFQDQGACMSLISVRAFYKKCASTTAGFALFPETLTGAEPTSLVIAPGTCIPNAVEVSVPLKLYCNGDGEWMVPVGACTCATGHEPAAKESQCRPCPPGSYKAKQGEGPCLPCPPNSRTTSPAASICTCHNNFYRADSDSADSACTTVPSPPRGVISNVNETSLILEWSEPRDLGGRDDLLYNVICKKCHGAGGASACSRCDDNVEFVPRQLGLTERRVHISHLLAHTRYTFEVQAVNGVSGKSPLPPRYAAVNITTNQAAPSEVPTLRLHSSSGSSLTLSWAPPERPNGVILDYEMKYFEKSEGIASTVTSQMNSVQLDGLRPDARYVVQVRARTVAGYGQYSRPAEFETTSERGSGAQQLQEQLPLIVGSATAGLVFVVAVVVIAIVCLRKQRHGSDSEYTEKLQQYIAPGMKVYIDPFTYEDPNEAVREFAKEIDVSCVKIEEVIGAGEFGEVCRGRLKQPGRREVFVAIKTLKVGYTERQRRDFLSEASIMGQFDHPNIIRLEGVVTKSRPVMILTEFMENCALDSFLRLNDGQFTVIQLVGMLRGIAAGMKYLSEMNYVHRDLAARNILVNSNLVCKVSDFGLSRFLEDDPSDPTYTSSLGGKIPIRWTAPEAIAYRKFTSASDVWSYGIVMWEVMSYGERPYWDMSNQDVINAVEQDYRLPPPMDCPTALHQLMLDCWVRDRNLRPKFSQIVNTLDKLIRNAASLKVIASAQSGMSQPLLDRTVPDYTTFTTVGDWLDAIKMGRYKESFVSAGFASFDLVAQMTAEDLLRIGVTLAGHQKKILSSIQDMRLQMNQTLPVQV
CDK5 CDK5R1 p25 (human), sequence (Q00535 whole entry, looked up): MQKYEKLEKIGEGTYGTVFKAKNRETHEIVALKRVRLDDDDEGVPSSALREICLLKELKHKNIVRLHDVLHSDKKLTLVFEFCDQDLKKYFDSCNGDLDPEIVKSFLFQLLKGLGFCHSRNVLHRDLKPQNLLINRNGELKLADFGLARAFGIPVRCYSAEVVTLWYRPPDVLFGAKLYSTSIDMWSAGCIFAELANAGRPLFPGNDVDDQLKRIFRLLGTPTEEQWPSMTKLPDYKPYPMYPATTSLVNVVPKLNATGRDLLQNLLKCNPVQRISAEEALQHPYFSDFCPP
CDK5 CDK5R1 p25 (human), sequence (Q15078 whole entry, looked up): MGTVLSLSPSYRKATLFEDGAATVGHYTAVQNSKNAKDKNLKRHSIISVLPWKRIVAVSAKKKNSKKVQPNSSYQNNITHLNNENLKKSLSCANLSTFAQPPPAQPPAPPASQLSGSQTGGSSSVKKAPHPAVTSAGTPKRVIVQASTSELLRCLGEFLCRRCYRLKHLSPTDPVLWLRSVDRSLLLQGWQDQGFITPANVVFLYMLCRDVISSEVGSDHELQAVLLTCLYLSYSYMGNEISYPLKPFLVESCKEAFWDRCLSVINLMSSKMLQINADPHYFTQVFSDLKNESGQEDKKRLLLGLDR

Structure (SMILES): COc1cc2c(cc1OC)-c1[nH]nc(Nc3cccc(F)c3)c1C2
- residual activity (PRKCA (human)): 99.2%
- residual activity (MAPK10 (human)): 102%
- residual activity (CDK4 CCND1 (human)): 93.9%
- residual activity [1]: 99.8%
- residual activity (CAMK1 (human)): 98.4%
- residual activity (MARK3 (human)): 69.9%
- residual activity (TEC (human)): 95%
- residual activity (PRKCH (human)): 92.1%
- residual activity (EPHB3 (human)): 97.2%
- residual activity (IKBKE (human)): 93.3%
- residual activity (MAP3K7 TAB1 (human)): 94%
- residual activity (JAK3 JH1 JH2 (human)): 98.6%
- residual activity (MAP3K14 (human)): 105%
- residual activity (MAP2K2 (human)): 99.8%
- residual activity (TBK1 (human)): 101%
- residual activity (STK16 (human)): 96.8%
- residual activity (CDK5 CDK5R1 p25 (human)): 89%
- residual activity (ACVRL1 (human)): 102%
- residual activity (PLK3 (human)): 94.9%
- residual activity (TTK (human)): 84.1%
- residual activity (AURKB (human)): 79.2%
- residual activity (MAP4K5 (human)): 89%
- residual activity (MINK1 (human)): 83.6%
- residual activity (MAP3K3 (human)): 103%
- residual activity (EPHB1 (human)): 100%
- residual activity (EPHA5 (human)): 93.4%
- residual activity (CSNK1G2 (human)): 89.7%
- residual activity (MAP4K4 (human)): 55.5%
- residual activity (SRPK3 (human)): 99.7%
- residual activity (TYRO3 (human)): 97.2%
- residual activity (WNK3 (human)): 104%
- residual activity (SLK (human)): 95.4%
- residual activity (ACVR1 (human)): 107%
- residual activity (PRKX (human)): 103%
- residual activity (MAP3K2 (human)): 84.5%
- residual activity (PIM1 (human)): 97.3%
- residual activity (PRKCB2 (human)): 103%
- residual activity (CLK1 (human)): 102%
- residual activity (SRPK1 (human)): 101%
- residual activity (PTK6 (human)): 81%
- residual activity (HIPK2 (human)): 103%
- residual activity (DYRK4 (human)): 92.6%

Structure (SMILES): COc1cc2ncnc(Nc3ccc(O)c(Br)c3)c2cc1OC
- residual activity (PRKCA (human)): 109%
- residual activity (MAPK10 (human)): 89%
- residual activity (CDK4 CCND1 (human)): 101%
- residual activity [1]: 95.7%
- residual activity (CAMK1 (human)): 103%
- residual activity (MARK3 (human)): 98.8%
- residual activity (TEC (human)): 108%
- residual activity (PRKCH (human)): 86.3%
- residual activity (EPHB3 (human)): 88.1%
- residual activity (IKBKE (human)): 94.6%
- residual activity (MAP3K7 TAB1 (human)): 100%
- residual activity (JAK3 JH1 JH2 (human)): 100%
- residual activity (MAP3K14 (human)): 82.6%
- residual activity (MAP2K2 (human)): 86.2%
- residual activity (TBK1 (human)): 84.7%
- residual activity (STK16 (human)): 104%
- residual activity (CDK5 CDK5R1 p25 (human)): 98.4%
- residual activity (ACVRL1 (human)): 102%
- residual activity (PLK3 (human)): 95.2%
- residual activity (TTK (human)): 105%
- residual activity (AURKB (human)): 63.5%
- residual activity (MAP4K5 (human)): 28.9%
- residual activity (MINK1 (human)): 64.4%
- residual activity (MAP3K3 (human)): 82%
- residual activity (EPHB1 (human)): 81.4%
- residual activity (EPHA5 (human)): 72.3%
- residual activity (CSNK1G2 (human)): 96.4%
- residual activity (MAP4K4 (human)): 59.3%
- residual activity (SRPK3 (human)): 92.4%
- residual activity (TYRO3 (human)): 78.6%
- residual activity (WNK3 (human)): 95.7%
- residual activity (SLK (human)): 50.3%
- residual activity (ACVR1 (human)): 128%
- residual activity (PRKX (human)): 89.2%
- residual activity (MAP3K2 (human)): 92.4%
- residual activity (PIM1 (human)): 75.5%
- residual activity (PRKCB2 (human)): 98.7%
- residual activity (CLK1 (human)): 77.2%
- residual activity (SRPK1 (human)): 91.8%
- residual activity (PTK6 (human)): 20.1%
- residual activity (HIPK2 (human)): 102%
- residual activity (DYRK4 (human)): 101%

Structure (SMILES): O=C1NC(=O)c2c1c1c3ccccc3[nH]c1c1[nH]c3cc(Br)ccc3c21
- residual activity (PRKCA (human)): 72.5%
- residual activity (MAPK10 (human)): 105%
- residual activity (CDK4 CCND1 (human)): 84.9%
- residual activity [1]: 47.6%
- residual activity (CAMK1 (human)): 99%
- residual activity (MARK3 (human)): 57.3%
- residual activity (TEC (human)): 105%
- residual activity (PRKCH (human)): 100%
- residual activity (EPHB3 (human)): 91.9%
- residual activity (IKBKE (human)): 83.4%
- residual activity (MAP3K7 TAB1 (human)): 91.4%
- residual activity (JAK3 JH1 JH2 (human)): 77%
- residual activity (MAP3K14 (human)): 101%
- residual activity (MAP2K2 (human)): 105%
- residual activity (TBK1 (human)): 53.5%
- residual activity (STK16 (human)): 87.2%
- residual activity (CDK5 CDK5R1 p25 (human)): 43.4%
- residual activity (ACVRL1 (human)): 109%
- residual activity (PLK3 (human)): 93.3%
- residual activity (TTK (human)): 98.7%
- residual activity (AURKB (human)): 44.3%
- residual activity (MAP4K5 (human)): 42.3%
- residual activity (MINK1 (human)): 52.2%
- residual activity (MAP3K3 (human)): 105%
- residual activity (EPHB1 (human)): 95.5%
- residual activity (EPHA5 (human)): 90.5%
- residual activity (CSNK1G2 (human)): 89.5%
- residual activity (MAP4K4 (human)): 29.3%
- residual activity (SRPK3 (human)): 89.2%
- residual activity (TYRO3 (human)): 89.7%
- residual activity (WNK3 (human)): 92.3%
- residual activity (SLK (human)): 90.9%
- residual activity (ACVR1 (human)): 127%
- residual activity (PRKX (human)): 85.1%
- residual activity (MAP3K2 (human)): 100%
- residual activity (PIM1 (human)): 8.84%
- residual activity (PRKCB2 (human)): 72.8%
- residual activity (CLK1 (human)): 97%
- residual activity (SRPK1 (human)): 86.4%
- residual activity (PTK6 (human)): 92.7%
- residual activity (HIPK2 (human)): 107%
- residual activity (DYRK4 (human)): 86%
